# Patent publication US20240376097A1, “BCL-2 Inhibitor” (BeiGene Ltd., priority 2020, published 2024)
# pIC50: −log10 of the molar value. Read-outs that look alike come from different tables or passages of the source.
# Assays:
# [1] = target: recombinant human Bcl-2 D103Y protein (Homo sapiens (Human), UniProt P10415, D103Y); assay: Bcl-2-D103Y Biochemical Assay (TR-FRET); format: binding; details: for pIC50: TR-FRET, FITC labeled Bak peptide; for ratio of Bcl-2 D103Y/Bcl-2 wt, compared with F91b in WO2019210828: comparison in words; for Ratio of Bcl-2 D103Y/Bcl-2 WT: ratio of IC50
# Procedure, shortened: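 Recombinant human Bcl-2 D103Y binding to its ligand measured by TR-FRET (ex 337 nm, em 490/520 nm) with increasing compound concentrations. Percent inhibition from the 490/520 nm ratio; IC50 from four-parameter logistic fit.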
# [2] = tested on: BCL-2 G101V knock-in cell line H96 (derive from RS4;11); assay: Bcl 2-G101V Knock-In RS4;11 Cell Proliferation Assay; format: cell-based; details: Homo sapiens, RS4;11 Bcl-2 G101V knock-in clone H96, 48 hrs, CellTiter-GLO, read-out: Cellular proliferation assay (IC50, nM) RS4
# Procedure, shortened: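 H96, a CRISPR-generated RS4;11 clone carrying BCL2-G101V knock-in (WES/RNA-seq validated), seeded 50,000 per well and exposed 48 h at 37 °C to 10-point dilutions topping at 1 or 10 μM. Viability by CellTiter-Glo luminescence; mean IC50.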
# [3] = target: Recombinant human Bcl-2 protein (Homo sapiens (Human), UniProt P10415); assay: Bcl-2 TR-FRET Assay; format: binding
# Procedure, shortened: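 0.05 nM recombinant Bcl-2 preincubated 0.5 h at room temperature with 10-point compound dilutions (top final 1, 0.1, 0.02 or 0.01 uM) in pH 7.5 phosphate buffer. FITC-Bak peptide (0.5 nM) and anti-6His Tb cryptate then added for 1 h. TR-FRET read; IC50 from four-parameter logistic fit.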
# [4] = tested on: RS4;11 (BCL-2 dependent acute lymphoblastic leukemia cell line); assay: RS4;11 Cell Proliferation Assay; format: cell-based; details: Homo sapiens, RS4-11, RS4;11 cells, read-out: Cellular proliferation assay (IC50, nM) RS4
# Procedure, shortened: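 RS4;11 cells, 50,000 per well in RPMI-1640 with 10% FBS, treated 48 h at 37 °C with a 10-point dilution series topping at 1 μM. Viability read by CellTiter-Glo ATP luminescence; mean IC50 reported.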
# [5] = target: recombinant human Bcl-2-G101V protein (Homo sapiens (Human), UniProt P10415, G101V); assay: Bcl-2-G101V TR-FRET Assay; format: binding; details: Bcl-2 G101V mutant, TR-FRET; read-out: Biochemical assay (IC50, nM) Bcl-2 G101V
# Procedure, shortened: (§1)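 Percent inhibition of the Bcl-2-G101V–ligand interaction was computed from the 490 nm to 520 nm emission ratio after 337 nm excitation, over increasing compound concentrations; a four-parameter logistic fit gave IC50.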
# [6] = tested on: recombinant human Bcl-2-G101V protein; assay: Bcl-2-G101V TR-FRET Assay; format: binding; details: for Ratio of Bcl-2 G101V/WT: ratio of biochemical IC50 Bcl-2 G101V / Bcl-2 WT
# Procedure, shortened: as §1
# [7] = Bcl-2 wild type, TR-FRET, read-out: Biochemical assay (IC50, nM) Bcl-2 WT
# [8] = wild type Bcl-2, unit inferred, read-out: Bcl-2 WT
Structure (SMILES),pIC50 [1],"ratio of Bcl-2 D103Y/Bcl-2 wt, compared with F91b in WO2019210828 [1]",Ratio of Bcl-2 D103Y/Bcl-2 WT [1],IC50 [2] [nM],"IC50 [3, 7] [nM]","IC50 [3, 8] [nM]",IC50 [4] [nM],IC50 [5] [nM],Ratio of Bcl-2 G101V/WT [6],"ratio of IC50 of Bcl-2 G101V/Bcl-2 wt, compared with Example F132b in WO2019210828 and ABT-199 (venetoclax) ([6]; comparison in words)"
"COc1cc(CN2CCN(C3CC4(CCN(c5ccc(C(=O)NS(=O)(=O)c6ccc(NC[C@H]7CC[C@](C)(O)CC7)c([N+](=O)[O-])c6)c(Oc6cnc7[nH]ccc7c6)c5)CC4)C3)C(c3ccccc3C(C)C)C2)cc(OC)c1OC (stereo partly drawn) [Example 75, 2-((1H-pyrrolo[2,3-b]pyridin-5-yl)oxy)-N-((4-((((1r,4r)-4-hydroxy-4-methylcyclohexyl)methyl)amino)-3-nitrophenyl)sulfonyl)-4-(2-(2-(2-isopropylphenyl)-4-(3,4,5-trimethoxybenzyl)piperazin-1-yl)-7-azaspiro[3.5]nonan-7-yl) benzamide]",9.66,significantly lower,3.6,1.5,0.059,0.059,0.35,0.28,4.7,
"CC(C)c1ccccc1C1CN(Cc2ccc3c(c2)OCCO3)CCN1C1CC2(CCN(c3ccc(C(=O)NS(=O)(=O)c4ccc(NC[C@H]5CC[C@](C)(O)CC5)c([N+](=O)[O-])c4)c(Oc4cnc5[nH]ccc5c4)c3)CC2)C1 (stereo partly drawn) [Example 78, 2-((1H-pyrrolo[2,3-b]pyridin-5-yl)oxy)-4-(2-(4-((2,3-dihydrobenzo[b] [1,4]dioxin-6-yl)methyl)-2-(2-isopropylphenyl)piperazin-1-yl)-7-azaspiro[3.5]nonan-7-yl)-N-((4-((((1r,4r)-4-hydroxy-4-methylcyclohexyl)methyl)amino)-3-nitrophenyl)sulfonyl)benzamide]",9.21,,2.9,2.6,0.21,0.21,0.42,0.98,4.6,
"CC(C)c1ccccc1C1CN(Cc2cccc3c2OCCO3)CCN1C1CC2(CCN(c3ccc(C(=O)NS(=O)(=O)c4ccc(NC[C@H]5CC[C@](C)(O)CC5)c([N+](=O)[O-])c4)c(Oc4cnc5[nH]ccc5c4)c3)CC2)C1 (stereo partly drawn) [Example 79, 2-((1H-pyrrolo[2,3-b]pyridin-5-yl)oxy)-4-(2-(4-((2,3-dihydrobenzo [b][1,4]dioxin-5-yl)methyl)-2-(2-isopropylphenyl)piperazin-1-yl)-7-azaspiro[3.5]nonan-7-yl)-N-((4-((((1r,4r)-4-hydroxy-4-methylcyclohexyl)methyl)amino)-3-nitrophenyl)sulfonyl)benzamide]",9.72,,1.2,1,0.16,0.16,0.35,0.51,3.2,
"COc1ccc(CN2CCN(C3CC4(CCN(c5ccc(C(=O)NS(=O)(=O)c6ccc(NC[C@H]7CC[C@](C)(O)CC7)c([N+](=O)[O-])c6)c(Oc6cnc7[nH]ccc7c6)c5)CC4)C3)C(c3ccccc3C(C)C)C2)cc1OC (stereo partly drawn) [Example 81, 2-((1H-pyrrolo[2,3-b]pyridin-5-yl)oxy)-4-(2-(4-(3,4-dimethoxybenzyl)-2-(2-isopropylphenyl)piperazin-1-yl)-7-azaspiro[3.5]nonan-7-yl)-N-((4-((((1r,4r)-4-hydroxy-4-methylcyclohexyl)methyl)amino)-3-nitrophenyl)sulfonyl)benzamide]",10.08,,2.2,0.878,0.038,0.038,0.286,0.2,5.2,
"CC(C)c1ccccc1C1CN(Cc2ccc(S(C)(=O)=O)cc2)CCN1C1CC2(CCN(c3ccc(C(=O)NS(=O)(=O)c4ccc(NC[C@H]5CC[C@](C)(O)CC5)c([N+](=O)[O-])c4)c(Oc4cnc5[nH]ccc5c4)c3)CC2)C1 (stereo partly drawn) [Example 82, 2-((1H-pyrrolo[2,3-b]pyridin-5-yl)oxy)-N-((4-((((1r,4r)-4-hydroxy-4-methylcyclohexyl)methyl)amino)-3-nitrophenyl)sulfonyl)-4-(2-(2-(2-isopropylphenyl)-4-(4-(methylsulfonyl)benzyl)piperazin-1-yl)-7-azaspiro[3.5]nonan-7-yl) benzamide]",9.77,,5.6,2.67,0.031,0.031,0.42,0.29,9.5,
"COc1ccc(CN2CCN(C3CC4(C3)CN(c3ccc(C(=O)NS(=O)(=O)c5ccc(NC[C@H]6CC[C@](C)(O)CC6)c([N+](=O)[O-])c5)c(Oc5cnc6[nH]ccc6c5)c3)C4)C(c3ccccc3C(C)C)C2)cc1 (stereo partly drawn) [Example 83, 2-((1H-pyrrolo[2,3-b]pyridin-5-yl)oxy)-N-((4-((((1r,4r)-4-hydroxy-4-methylcyclohexyl)methyl)amino)-3-nitrophenyl)sulfonyl)-4-(6-(2-(2-isopropylphenyl)-4-(4-methoxybenzyl)piperazin-1-yl)-2-azaspiro[3.3]heptan-2-yl) benzamide]",9.80,significantly lower,2,0.73,0.079,0.079,0.27,0.25,3.1,much lower
"CC(C)c1ccccc1C1CN(Cc2cccc3c2OCCCO3)CCN1C1CC2(CCN(c3ccc(C(=O)NS(=O)(=O)c4ccc(NC[C@H]5CC[C@](C)(O)CC5)c([N+](=O)[O-])c4)c(Oc4cnc5[nH]ccc5c4)c3)CC2)C1 (stereo partly drawn) [Example 107, 2-((1H-pyrrolo[2,3-b]pyridin-5-yl)oxy)-4-(2-(4-((3,4-dihydro-2H-benzo[b][1,4]dioxepin-6-yl)methyl)-2-(2-isopropylphenyl)piperazin-1-yl)-7-azaspiro[3.5]nonan-7-yl)-N-((4-((((1r,4r)-4-hydroxy-4-methylcyclohexyl)methyl)amino)-3-nitrophenyl)sulfonyl)benzamide]",9.51,,2.8,1.77,0.11,0.11,0.33,0.56,5.1,
"CC(C)c1ccccc1C1CN(Cc2ccc(N(C)C)cc2)CCN1C1CC2(CCN(c3ccc(C(=O)NS(=O)(=O)c4ccc(NC[C@H]5CC[C@](C)(O)CC5)c([N+](=O)[O-])c4)c(Oc4cnc5[nH]ccc5c4)c3)CC2)C1 (stereo partly drawn) [Example 114, 2-((1H-pyrrolo[2,3-b]pyridin-5-yl)oxy)-4-(2-(4-(4-(dimethylamino)benzyl)-2-(2-isopropylphenyl)piperazin-1-yl)-7-azaspiro[3.5]nonan-7-yl)-N-((4-((((1r,4r)-4-hydroxy-4-methylcyclohexyl)methyl)amino)-3-nitrophenyl)sulfonyl)benzamide]",9.40,,3.4,3.65,0.12,0.12,0.6,0.83,6.9,
"CC(C)c1ccccc1C1CN(Cc2cccc3c2OCO3)CCN1C1CC2(CCN(c3ccc(C(=O)NS(=O)(=O)c4ccc(NC[C@H]5CC[C@](C)(O)CC5)c([N+](=O)[O-])c4)c(Oc4cnc5[nH]ccc5c4)c3)CC2)C1 (stereo partly drawn) [Example 115, 2-((1H-pyrrolo[2,3-b]pyridin-5-yl)oxy)-4-(2-(4-(benzo[d][1,3]dioxol-4-ylmethyl)-2-(2-isopropylphenyl)piperazin-1-yl)-7-azaspiro[3.5]nonan-7-yl)-N-((4-((((1r,4r)-4-hydroxy-4-methylcyclohexyl)methyl)amino)-3-nitrophenyl)sulfonyl)benzamide]",9.24,,5.9,2.3,0.097,0.097,0.42,0.37,3.8,
